Experimental data taken from ChEMBL document CHEMBL1158013, “Absolute structures of new briarane diterpenoids from junceella fragilis” (J Nat Prod, 1999).
The source made the active and inactive calls.

How the values were obtained:
Type in all cases: functional, cell-based
[1] = test system: P388; assay: Cytotoxicity against mouse P388 cells
[2] = test system: A549; assay: Cytotoxicity against human A549 cells
[3] = test system: HT-29; assay: Cytotoxicity against human HT-29 cells
[4] = test system: SK-MEL-28; assay: Cytotoxicity against human SK MEL28 cells

Measured: Activity

C=C1[C@H](Cl)[C@@H]2OC(=O)[C@H](C)[C@]23O[C@@H]1[C@H](OC(C)=O)[C@H](OC(C)=O)[C@@]1(C)[C@@H](OC(C)=O)CC[C@]2(CO2)[C@@H]1[C@@H]3OC(C)=O
inactive: all assays above

CC(=O)O[C@H]1CC[C@]2(CO2)[C@@H]2[C@H](OC(C)=O)[C@@]3(O)[C@H](/C=C(/C)[C@H](OC(C)=O)C[C@H](OC(C)=O)[C@@]12C)OC(=O)[C@@H]3C
inactive: all assays above

C=C1CC[C@H](OC(C)=O)[C@@]2(C)[C@H]1[C@@H](OC(C)=O)[C@@]13O[C@](O)(C[C@H]2OC(C)=O)C(=C)C[C@@H]1OC(=O)[C@@H]3C
inactive: all assays above

CC(=O)O[C@H]1CC/C(C)=C\[C@@H]2OC(=O)[C@H](C)[C@@]2(O)[C@@H](OC(C)=O)[C@H]2[C@]3(CC[C@H](OC(C)=O)[C@]12C)CO3
inactive: all assays above

C=C1CC[C@H](OC(C)=O)[C@]2(C)[C@@H](OC(C)=O)C[C@@H](OC(C)=O)/C(C)=C\[C@@H]3OC(=O)[C@H](C)[C@]3(O)[C@@H](OC(C)=O)[C@@H]12
inactive: all assays above

C=C1CC[C@H](OC(C)=O)[C@]2(C)[C@@H](OC(C)=O)C[C@@H](O)/C(C)=C\[C@@H]3OC(=O)[C@H](C)[C@]3(O)[C@@H](OC(C)=O)[C@@H]12
inactive: all assays above

CC(=O)O[C@H]1CC[C@]2(CO2)[C@@H]2[C@H](OC(C)=O)[C@@]3(O)[C@H](/C=C(/C)[C@H](O)C[C@H](OC(C)=O)[C@@]12C)OC(=O)[C@@H]3C
inactive: all assays above

C=C1[C@H]2C[C@@H](OC(C)=O)[C@@]3(C)[C@@H](OC(C)=O)CC[C@]4(CO4)[C@@H]3[C@@H](OC(C)=O)[C@]3(O2)[C@@H](C)C(=O)O[C@H]3[C@H]1Cl
inactive: all assays above
